According to patent US20260098025A1, “DIMERIC COMPOUNDS AS INHIBITORS OF GLYCOGEN SYNTHASE 1 (GYS1) AND METHODS OF USE THEREOF” (Maze Therapeutics, Inc., priority 2022, published 2026):

Molecular target: T1, recombinant hGYS1/GN1 protein (Homo sapiens, UniProt P13807)
T1 sequence (P13807 1-737): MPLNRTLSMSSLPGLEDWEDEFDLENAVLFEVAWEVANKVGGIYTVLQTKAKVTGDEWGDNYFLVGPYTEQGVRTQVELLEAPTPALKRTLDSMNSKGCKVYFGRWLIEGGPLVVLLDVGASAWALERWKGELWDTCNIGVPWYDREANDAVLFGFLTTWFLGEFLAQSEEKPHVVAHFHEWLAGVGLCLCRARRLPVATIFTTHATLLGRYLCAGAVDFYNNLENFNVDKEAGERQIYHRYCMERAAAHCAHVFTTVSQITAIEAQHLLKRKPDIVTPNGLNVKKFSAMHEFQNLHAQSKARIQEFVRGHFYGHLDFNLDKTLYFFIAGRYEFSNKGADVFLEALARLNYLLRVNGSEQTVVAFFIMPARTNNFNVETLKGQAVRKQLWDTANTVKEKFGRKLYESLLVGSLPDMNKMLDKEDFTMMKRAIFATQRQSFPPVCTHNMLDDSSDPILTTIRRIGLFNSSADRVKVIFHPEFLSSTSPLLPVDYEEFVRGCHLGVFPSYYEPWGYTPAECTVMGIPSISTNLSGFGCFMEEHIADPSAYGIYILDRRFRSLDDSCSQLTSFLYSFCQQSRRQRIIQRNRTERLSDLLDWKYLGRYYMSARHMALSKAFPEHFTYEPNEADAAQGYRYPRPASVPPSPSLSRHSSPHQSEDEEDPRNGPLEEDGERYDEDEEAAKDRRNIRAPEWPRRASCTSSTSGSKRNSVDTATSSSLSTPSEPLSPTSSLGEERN
T1 sequence (P46976 1-350 partner): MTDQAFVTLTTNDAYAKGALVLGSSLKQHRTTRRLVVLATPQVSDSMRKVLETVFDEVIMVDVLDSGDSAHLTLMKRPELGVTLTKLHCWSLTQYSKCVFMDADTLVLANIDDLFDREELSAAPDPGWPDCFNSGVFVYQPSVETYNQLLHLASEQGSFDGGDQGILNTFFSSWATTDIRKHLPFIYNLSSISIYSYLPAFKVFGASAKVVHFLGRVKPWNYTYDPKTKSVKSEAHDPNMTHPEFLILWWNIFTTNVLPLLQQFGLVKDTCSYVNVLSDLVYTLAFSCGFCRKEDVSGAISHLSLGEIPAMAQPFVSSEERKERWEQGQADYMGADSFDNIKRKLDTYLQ
Assay: GYS1 coupled enzyme assay (PK/LDH, NADH absorbance at 340 nm)
Format: biochemical
Conditions: geometric mean of at least 2 assay runs on separate days; hGYS1/GN1 50 nM, Glucose-6-Phosphate 1 mM, UDP-Glucose 0.8 mM
Source text: The GYS1 coupled enzyme assay is a kinetic biochemical assay that indirectly quantifies the rate of glycogen synthesis by coupling the conversion of GYS1 substrate UDP-glucose into UDP with downstream enzymatic reactions. UDP is released from UDP-glucose as glucose monomers are linked into the growing glycogen strand by GYS1. The coupled assay then proceeds with pyruvate kinase utilizing UDP and phospho(enol)pyruvate (PEP) to form pyruvate. Lactate dehydrogenase then converts pyruvate and NADH into lactate and NAD+. Oxidation of NADH to NAD+ can be measured continuously with a plate reader by quantifying the decrease in NADH absorbance at 340 nm over time.
Compounds that inhibit the hGYS1 enzyme and, subsequently, the downstream conversion of NADH to NAD+, were tested using assay ready plates (black, clear bottom 384 well plates) in a final DMSO reaction volume of 2.5% DMSO. The Assay Buffer contained 50 mM Tris pH 7.5, 2 mM MgCl2, and 100 mM KCl. Fresh stocks of BSA at a final concentration of 0.02% and TCEP at 1 mM were added before splitting buffer into hGYS1 buffer and substrate buffer. To the hGYS1 buffer, rabbit liver glycogen was added at a final concentration of 0.2% glycogen. Glucose-6-Phosphate was added at 1 mM, recombinant hGYS1/GN1 protein was added at 50 nM to the substrate buffer, phosphoenolpyruvate (PEP) was added at 2 mM, UDP-Glucose was added at 0.8 mM, NADH) was added at 0.6 mM, and Pyruvate Kinase/Lactate Dehydrogenase was added at 20 units/mL. The reaction was initiated by mixing hGYS1 buffer and substrate buffer at a 1:1 ratio. Both buffers were plated using a liquid dispensing device with hGYS1 buffer plated first followed by the substrate buffer. Plates were spun briefly to eliminate air bubbles and are immediately read in continuous mode at an absorbance of 340 nm, for 10 time points in one-minute increments, for a total of 10 minutes. The slope from these 10 time points was normalized to the positive and negative control wells. The duplicate % inhibition values are then averaged and fit to a Hill equation for dose response according to the Levenberg-Marquardt algorithm with the Hill equation maximum set to 100 and the minimum set to 0.
The results are shown in Table 2 below, which reports the IC50 of each compound. Unless otherwise specified, IC50 values are reported as the geometric mean of at least 2 assay runs on separate days. Each run represents the average of a technical replicate, where each compound was assayed twice in the same plate. As shown in the table below, the compounds of the present invention are potent inhibitors of human GYS1. A superscript “#” symbol in Table 2 indicates results from a single assay run.
Note that, in Table 2, the compounds are referred to by the corresponding Compound No. in Table 1, which is also referred to in the synthetic examples.

| Structure (SMILES) | IC50 [nM] |
| --- | --- |
| O=C(COCCOCCOCCOCCOCCOCCOCCOCCOCCOCCOCC(=O)N[C@@H](c1ccccc1)c1ccc(C2CC2)c(F)n1)N[C@@H](c1ccccc1)c1ccc(C2CC2)c(F)n1 [Compound 6, N^1,N^35-bis((S)-(5-cyclopropyl-6-fluoropyridin-2-yl)(phenyl)methyl)-3,6,9,12,15,18,21,24,27,30,33-undecaoxapentatriacontanediamide] | 7500 |
| O=C(N[C@@H](c1ccccc1)c1ccc(C2CC2)c(F)n1)[C@@H]1C[C@@H](F)CN1C(=O)COCCOCCNCCOCCOCCOCC(=O)N1C[C@H](F)C[C@H]1C(=O)N[C@@H](c1ccccc1)c1ccc(C2CC2)c(F)n1 [Compound 13, (2S,2′S,4R,4′R)-1,1′-(3,6,12,15,18-pentaoxa-9-azaicosanedioyl)bis(N-((S)-(5-cyclopropyl-6-fluoropyridin-2-yl)(phenyl)methyl)-4-fluoropyrrolidine-2-carboxamide)] | > 10000 |
| O=C(N[C@@H](c1ccccc1)c1ccc(C2CC2)c(F)n1)[C@@H]1C[C@@H](F)CN1C(=O)Cn1cc(OCCOCCOc2cn(CC(=O)N3C[C@H](F)C[C@H]3C(=O)N[C@@H](c3ccccc3)c3ccc(C4CC4)c(F)n3)nn2)nn1 [Compound 1, (2S,2′S,4R,4′R)-1,1′-(2,2′-(((oxybis(ethane-2,1-diyl))bis(oxy))bis(1H-1,2,3-triazole-4,1-diyl))bis(acetyl))bis(N-((S)-(5-cyclopropyl-6-fluoropyridin-2-yl)(phenyl)methyl)-4-fluoropyrrolidine-2-carboxamide)] | 10.8 |

Second part, the compound after the results:

| IC50 [nM] | Structure (SMILES) |
| --- | --- |
| 23 | Cc1cn(CC(=O)N2C[C@H](F)C[C@H]2C(=O)N[C@@H](c2ccccc2)c2ccc(C3CC3)c(F)n2)c(=O)nc1OCCOc1nc(=O)n(CC(=O)N2C[C@H](F)C[C@H]2C(=O)N[C@@H](c2ccccc2)c2ccc(C3CC3)c(F)n2)cc1C [Compound 16, (2S,2′S,4R,4′R)-1,1′-(2,2′-((ethane-1,2-diylbis(oxy))bis(5-methyl-2-oxopyrimidine-4,1(2H)-diyl))bis(acetyl))bis(N-((S)-(5-cyclopropyl-6-fluoropyridin-2-yl)(phenyl)methyl)-4-fluoropyrrolidine-2-carboxamide)] |
| 5.3 | Cc1cn(CC(=O)N2C[C@H](F)C[C@H]2C(=O)N[C@@H](c2ccccc2)c2ccc(C3CC3)c(F)n2)c(=O)n(CCOCCOCCn2c(=O)c(C)cn(CC(=O)N3C[C@H](F)C[C@H]3C(=O)N[C@@H](c3ccccc3)c3ccc(C4CC4)c(F)n3)c2=O)c1=O [Compound 15, (2S,2′S,4R,4′R)-1,1′-(2,2′-(((ethane-1,2-diylbis(oxy))bis(ethane-2,1-diyl))bis(5-methyl-2,4-dioxo-3,4-dihydropyrimidine-3,1(2H)-diyl))bis(acetyl))bis(N-((S)-(5-cyclopropyl-6-fluoropyridin-2-yl)(phenyl)methyl)-4-fluoropyrrolidine-2-carboxamide)] |
